Test results from article PMC5607274, “An iterative compound screening contest method for identifying target protein inhibitors using the tyrosine-protein kinase Yes” (Scientific Reports, 2017).

Biological target: T1, human recombinant Yes [a.a. 2–543 (end)] (Homo sapiens, UniProt P07947)
T1 construct: human recombinant Yes [a.a; 2–543 (end)]; purchased BPS Bioscience 40488
Assay: ADP-Glo kinase assay, inhibition rates of Yes phosphorylation activity (first and second screening)
Assay type: biochemical
Details: 10 μmol L−1 compound; for First screening IR (inhibition rate): mean of n = 4 wells; for Second screening IR (inhibition rate): dissolved from fresh powder, n = 4
How it was run: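 ADP-Glo luminescence measured inhibition of human recombinant Yes (a.a. 2–543) phosphorylation activity. In the first screen, each compound ran in 4 wells and inhibition rates were averaged. The second screen retested hits as compounds dissolved from fresh powder.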

T1 sequence (P07947 2-543): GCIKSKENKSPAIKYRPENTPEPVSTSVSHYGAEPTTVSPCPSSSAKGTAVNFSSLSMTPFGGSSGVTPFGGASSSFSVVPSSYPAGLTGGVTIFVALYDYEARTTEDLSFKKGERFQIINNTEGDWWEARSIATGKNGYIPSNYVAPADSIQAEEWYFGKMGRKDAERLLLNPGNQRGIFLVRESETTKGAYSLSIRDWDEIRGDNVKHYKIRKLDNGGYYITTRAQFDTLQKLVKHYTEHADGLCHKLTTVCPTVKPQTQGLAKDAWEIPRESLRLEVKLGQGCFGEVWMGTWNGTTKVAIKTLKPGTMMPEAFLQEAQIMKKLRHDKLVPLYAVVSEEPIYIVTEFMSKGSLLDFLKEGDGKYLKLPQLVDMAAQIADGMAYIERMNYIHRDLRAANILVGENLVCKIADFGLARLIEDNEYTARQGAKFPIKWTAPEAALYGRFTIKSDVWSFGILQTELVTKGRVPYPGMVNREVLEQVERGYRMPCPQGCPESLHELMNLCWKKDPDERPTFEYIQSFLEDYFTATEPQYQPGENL

Row | Structure (SMILES) | First screening IR (inhibition rate) | Second screening IR (inhibition rate)
1 | COc1ccccc1C(=O)N=Nc1c(O)[nH]c2ccc(C)cc12 [Compound Z381428874] | 15% | –
2 | Cc1sc2nc(CN3CCC(C)CC3)nc(N3CCN(C(=O)c4ccccc4O)CC3)c2c1C [Compound Z381659312] | -12% | –
3 | NC(=O)Nc1ccc(NC(=O)Cc2csc(Cc3ccccc3)n2)cc1 [Compound Z383135670] | -14% | –
4 | O=C(Cc1csc(Cc2ccccc2)n1)Nc1cccc(Cn2ccnc2)c1 [Compound Z383523130] | 46% | –
5 | O=C(Nc1cccc(COc2cccc(F)c2)c1)c1ccc(=O)[nH]n1 [Compound Z383786992] | -2% | –
6 | CC(CCN1CCN(c2ccccc2)CC1)NC(=O)c1cc(-c2ccco2)nc2c1cnn2C(C)C (centres unmarked) [Compound Z385234634] | 62% | 1%
7 | Cc1ccc(S(C)(=O)=O)cc1S(N)(=O)=O [Compound Z385450636] | 26% | –
8 | CC(=O)Nc1ccc(SCc2noc(-c3cccc(C)c3)n2)cc1 [Compound Z388276110] | 12% | –
9 | Cc1nc2cc(NC(=O)c3cc(C)n(-c4cccnc4)c3C)ccc2o1 [Compound Z395169542] | 6% | –
10 | Cc1noc2ncc(C(=O)NCc3cccc(Cn4ccnc4)c3)cc12 [Compound Z395825976] | -16% | –
11 | COc1cc(CNC(=O)C2CCCN2C(C)=O)ccc1OCc1cccnc1 (centres unmarked) [Compound Z396609184] | 7% | –
12 | FC(F)(F)c1ccnc(Nc2cn[nH]c2)n1 [Compound Z397745198] | 2% | –
13 | Cc1cn2nc(NCc3ccc(N4CCNC(=O)C4)cc3)sc2n1 [Compound Z397897560] | 39% | –
14 | O=C(c1ccoc1)N1CCC(NCc2cn[nH]c2-c2ccc(F)cc2)CC1 [Compound Z401874244] | 36% | –
15 | O=C(CS(=O)(=O)CCCc1ccccc1)Nc1ccc(-n2ccnc2)nc1 [Compound Z407006622] | -20% | –
16 | c1ccc(-n2ncc3c2CCNC3)cc1 [Compound Z409420032] | -11% | –
17 | CC(CCc1ccc(O)cc1)NC(=O)Nc1ccc(NC(=O)c2ccco2)cc1 (centres unmarked) [Compound Z412774176] | -12% | –
18 | O=C(NCCSCc1ccccc1)Nc1ccc(NC(=O)c2ccco2)cc1 [Compound Z412775020] | 44% | -16%
19 | O=C(NCc1cccc(C(F)(F)F)c1)Nc1ccc(NC(=O)c2ccco2)cc1 [Compound Z412775872] | -5% | –
20 | CN(C)C(=O)c1ccc(Cl)c(NC(=O)N2CCc3ccccc3C2)c1 [Compound Z413336660] | 5% | –
21 | COC(=O)c1cn(C)c(-c2ccc(NC(=O)c3ccc(CN4CCCCC4)cc3)cc2)c1C(=O)OC [Compound Z415024646] | -1% | –

Row | Structure (SMILES) | First screening IR (inhibition rate) | Second screening IR (inhibition rate)
22 | N#Cc1ccc(-c2cc(-c3ccccc3)c3cc(Br)ccc3n2)cc1 [Compound Z415722772] | -4% | –
23 | N#Cc1ccc(-c2cc(-c3ccc(Cl)cc3)c3ccccc3n2)cc1 [Compound Z415722774] | 6% | –
24 | CCS(=O)(=O)Cc1cccc(S(=O)(=O)N(C)C)c1 [Compound Z416890194] | -10% | –
25 | O=C(Cc1csc(NC(=O)c2ccccc2F)n1)NCC1Cc2ccccc2O1 (centres unmarked) [Compound Z420283836] | -5% | –
26 | Cc1nn(C)c2sc(C(=O)NC3CCN(C(=O)C(C)(C)C)CC3)cc12 [Compound Z421731088] | 3% | –
27 | Cc1cc(C(=O)Nc2ccc(N3CCNC(=O)C3)c(Cl)c2)c2ccccc2n1 [Compound Z421986674] | 7% | –
28 | O=C(NCc1ccnc(Oc2ccccc2)c1)c1ccc(OCc2cccnc2)cc1 [Compound Z424307182] | -22% | –
29 | Cc1n[nH]c(C)c1/C=C/C(=O)c1ccc(N2CCCC2=O)cc1 [Compound Z424802904] | 6% | –
30 | Cc1ccc(NC(=O)c2ccc(N3CC(O)=C(c4nc5ccccc5s4)C3=N)cc2)c(O)c1 [Compound Z425227654] | 1% | –
31 | COc1cc2cc(C3CC(C4CC4)=NN3C(C)=O)c(Cl)nc2cc1OC (centres unmarked) [Compound Z431511574] | -6% | –
32 | O=C(CCc1ccc(-c2ccccc2F)o1)Nc1cccc(NC(=O)CCn2ccnc2)c1 [Compound Z431623528] | 5% | –
33 | Cc1ccccc1-n1c(=O)c2ccccc2n2c(=S)n(CN3CCN(CCC(C)C)CC3)nc12 [Compound Z431773138] | 44% | –
34 | COc1cccc(OCCN2CCN(c3cc(C(C)(C)C)nc4c(-c5ccc(Cl)cc5)c(C)nn34)CC2)c1 [Compound Z431973470] | 12% | –
35 | O=S1(=O)CCN(S(=O)(=O)Cl)CC1 [Compound Z432047124] | 0% | –
36 | COc1cccc(OCCN2CCN(c3cc(C)nc4c(-c5ccc(F)cc5)c(C(F)(F)F)nn34)CC2)c1 [Compound Z432102126] | -1% | –
37 | O=C(CCc1ccsc1)Nc1cc(C(F)(F)F)c[nH]c1=O [Compound Z432185696] | 4% | –
38 | c1ccc(Cn2cccn2)c(CNc2cncc(-n3cccn3)n2)c1 [Compound Z432289626] | 41% | 18%
39 | C=CCn1c(=O)c2ccccc2n2c(SCC(=O)Nc3ccc(N4CCN(C)CC4)cn3)nnc12 [Compound Z432326346] | 8% | –
40 | CN(C)S(=O)(=O)c1cccc(CS(=O)(=O)c2ccccn2)c1 [Compound Z432528000] | 4% | –
41 | Cc1ccc(Oc2ccc(NC(=O)N3CCNC(=O)C3)cn2)cc1 [Compound Z435639920] | -14% | –
42 | COc1cccc(OCCN2CCN(c3cc(C)nc4c(-c5ccc(Cl)cc5)c(C)nn34)CC2)c1 [Compound Z435980234] | 3% | –

Row | Structure (SMILES) | First screening IR (inhibition rate) | Second screening IR (inhibition rate)
43 | CC(C)c1noc(C(C)S(=O)(=O)C/C=C/c2ccccc2)n1 (centres unmarked) [Compound Z436400008] | 6% | –
44 | COc1cccc(OCCN2CCN(c3cc(C(C)(C)C)nc4c(-c5ccc(F)cc5)c(C)nn34)CC2)c1 [Compound Z439257332] | -1% | –
45 | Cc1nn(C(C)(C)C)c2nc(C3CC3)cc(C(=O)NC(C)C)c12 [Compound Z441582602] | -6% | –
46 | Cn1ncc2c(N3CCN(CC[S+]([O-])c4cc(Cl)ccc4Cl)CC3)ncnc21 (centres unmarked) [Compound Z445169626] | 4% | –
47 | COc1ccc(CNCc2cn[nH]c2-c2ccc(C)o2)cn1 [Compound Z446209214] | -2% | –
48 | CN(C)c1ccc(CNC(=O)N2CCN(C3=NS(=O)(=O)c4ccccc43)CC2)cc1 [Compound Z449089632] | 1% | –
49 | Cc1ccc2c(=O)c(C(=O)N(C)CC(=O)Nc3ccc(Cl)c(Cl)c3)c[nH]c2n1 [Compound Z454409356] | 45% | –
50 | Cc1oc(C)c(S(N)(=O)=O)c1C(=O)N1CCN(Cc2c(F)cccc2Cl)CC1 [Compound Z466082788] | -3% | –
51 | Cc1cc(CN(C)C(=O)NCc2ccc(N3CCCC3=O)cc2)no1 [Compound Z485637938] | -16% | –
52 | CCN(Cc1ccc(Cl)s1)C(=O)NCc1ccnc(N2CCN(C)CC2)c1 [Compound Z508129336] | 9% | –
53 | CS(=O)(=O)CS(=O)(=O)C(F)(F)F [Compound Z540725378] | -4% | –
54 | Cc1ncc2c(n1)CCN(C(=O)NCc1cc(-c3ccccc3)no1)C2 [Compound Z558380580] | 1% | –
55 | CCCn1c(=O)c2ccccc2n2c(=S)n(CN3CCC(C(=O)Nc4cc(C)ccn4)CC3)nc12 [Compound Z573186768] | -4% | –
56 | Cc1cccc(NC(=O)C2CCCN(c3nc(CN4CCOCC4)nc4sc(C)c(C)c34)C2)n1 (centres unmarked) [Compound Z573238670] | -5% | –
57 | O=C(Nc1cc(N2CCCS2(=O)=O)ccc1O)c1cccc(C(F)(F)F)c1 [Compound Z573928840] | -18% | –
58 | N#CC(C(=O)CCc1ccc(F)cc1)c1nc2cc(Cl)ccc2c(=O)[nH]1 (centres unmarked) [Compound Z594627070] | 1% | –
59 | O=C(CCNC(=O)c1cccs1)Nc1ccc2nc(-c3cccc(F)c3)[nH]c2c1 [Compound Z594945904] | -4% | –
60 | CN(c1ccc(NC(=O)N2CCN(C(=O)c3cccnc3)CC2)cc1F)C1CCCCC1 [Compound Z595406192] | 2% | –
61 | Cc1cc(Br)c(O)c(C(=O)NCCC(=O)N2CCOCC2)c1 [Compound Z596098802] | 7% | –
62 | COc1ccc(NC(=O)C(=O)c2c(C)nn(-c3ccccc3)c2C)cc1OCc1cn2ccccc2n1 [Compound Z605682156] | -5% | –
